The results in this text go back to patent US20260217863A1, “ANTIBODY OR PEPTIDE BINDING SPECIFICALLY TO RNASE A, IMMUNOASSAY DEVICE AND METHOD FOR DETECTING RNASE A, AND METHOD FOR COLLECTING RNASE A” (UIF (University Industry Foundation), Yonsei University, priority 2022, published 2026).

pIC50: −log10 of the molar value. Where no end group is shown, it is not given here.

The experiment deals with T1, RNase A (Bos taurus, UniProt P61823).
T1 sequence (P61823 27-150): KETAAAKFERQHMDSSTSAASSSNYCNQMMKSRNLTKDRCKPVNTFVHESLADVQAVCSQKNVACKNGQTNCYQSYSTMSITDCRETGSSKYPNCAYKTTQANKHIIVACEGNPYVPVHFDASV
The experiment is described as follows: cCMP hydrolysis assay of RNase A inhibition (absorbance 286 nm). The class given is biochemical, bovine. Also noted: Ribonuclease A (Type II-A) from bovine pancreas; purchased Sigma-Aldrich Korea; host or cells: bovine pancreas. The following applies: inhibitor 0.1 nM to 1 μM, linear regression. The procedure: The analysis of RNase A activity inhibition based on 2′,3′-cyclic CMP (cCMP) was performed by measuring the absorbance of cCMP at a wavelength of 286 nm. A mixture was prepared by combining Tris-acetate buffer (500 mM, pH=6.5, 200 μL), EDTA (5 mM, 200 μL), 2′,3′-cCMP (10 mM, 100 μL), RNase A (10 μg/mL, 100 μL), Fv variant (or synthetic peptides in the concentration range of 0.1 nM-1 μM), and DW (filled up to 1000 μL). The absorbance at 286 nm was measured using a Lamda35 UV-VIS spectrophotometer (Perkin-Elmer, MA, USA). The reaction was initiated by adding RNase A to the mixture, and the absorbance was measured every 3 minutes for a total of 30 minutes.
RNase A is known to degrade RNA by cleaving the phosphodiester bonds between nucleotides. The cleavage of the phosphodiester bonds occurs through a two-step reaction: (1) the formation of a […] and (2) the subsequent degradation of a 2′,3′-cyclic phosphate intermediate. […] Specifically, it was utilized that the absorbance at 286 nm quantitatively increases as 3′-CMP increases due to the hydrolysis of cCMP, as shown in FIG. 13. […] The inhibition curves of the Fv antibodies were plotted linearly, and the IC50 values were calculated by linear regression, as shown in FIG. 15. […]
The analysis of RNase A activity inhibition based on 2′,3′-cyclic CMP (cCMP) was performed by measuring the absorbance of cCMP at a wavelength of 286 nm. […] The absorbance at 286 nm was measured using a Lamda35 UV-VIS spectrophotometer (Perkin-Elmer, MA, USA). The reaction was initiated by adding RNase A to the mixture, and the absorbance was measured every 3 minutes for a total of 30 minutes.
RNase A is known to degrade RNA by cleaving the phosphodiester bonds between nucleotides. […] Specifically, it was utilized that the absorbance at 286 nm quantitatively increases as 3′-CMP increases due to the hydrolysis of cCMP, as shown in FIG. 13. […] The inhibition curves of the Fv antibodies were plotted linearly, and the IC50 values were calculated by linear regression, as shown in FIG. 15.
What is called pIC50 is the IC50 on a negative log10 scale, so that one unit is a factor of ten. Read a high pIC50 as a small IC50. DGTAKKSRKDD [Peptide-3] showed a pIC50 of 6.45.

On to CGPDSDVMTDF [Peptide-1], for which the pIC50 was 6.22.

Sequence YGPVGRVKRDD [Peptide-2] had a pIC50 of 6.43.
